IC50 data for 2 compounds are collected here from ChEMBL document CHEMBL1201862, “PubChem BioAssay data set” (2004).

Active and inactive are the calls of the source. Cut-off read from the data, not from the text of the source: actives have a measured IC50 and inactives only a lower limit.

The target of this assay is Envelope glycoprotein gp160 (Human immunodeficiency virus 1, UniProt Q6QLK5). Put plainly: inhibitors of HIV fusion peptide binding, primary screen, biochemical, uHTS, fluorescence dequenching (AID 1986).
Envelope glycoprotein gp160, sequence (Q6QLK5 whole entry, the tested form may be a part): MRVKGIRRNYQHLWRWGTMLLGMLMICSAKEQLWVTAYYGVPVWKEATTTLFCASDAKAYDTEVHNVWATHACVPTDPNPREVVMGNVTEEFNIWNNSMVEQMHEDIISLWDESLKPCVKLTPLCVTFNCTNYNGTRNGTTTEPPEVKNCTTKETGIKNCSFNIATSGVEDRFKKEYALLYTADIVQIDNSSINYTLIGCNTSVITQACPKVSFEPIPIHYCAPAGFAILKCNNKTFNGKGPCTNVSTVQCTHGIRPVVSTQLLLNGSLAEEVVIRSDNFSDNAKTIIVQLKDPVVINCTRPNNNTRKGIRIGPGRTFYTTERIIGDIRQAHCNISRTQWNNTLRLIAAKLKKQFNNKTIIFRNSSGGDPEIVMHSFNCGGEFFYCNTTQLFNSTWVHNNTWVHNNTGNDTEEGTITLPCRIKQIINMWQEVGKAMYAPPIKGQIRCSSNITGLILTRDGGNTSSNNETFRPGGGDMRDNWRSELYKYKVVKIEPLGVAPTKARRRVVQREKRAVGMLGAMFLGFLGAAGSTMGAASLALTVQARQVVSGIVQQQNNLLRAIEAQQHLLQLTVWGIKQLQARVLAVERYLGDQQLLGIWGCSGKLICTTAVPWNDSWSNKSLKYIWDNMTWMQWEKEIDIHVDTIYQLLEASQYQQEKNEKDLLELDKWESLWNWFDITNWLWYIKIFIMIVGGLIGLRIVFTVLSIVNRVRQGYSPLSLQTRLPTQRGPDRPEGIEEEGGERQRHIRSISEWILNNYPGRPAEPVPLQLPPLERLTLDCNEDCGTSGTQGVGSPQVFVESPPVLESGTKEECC

For `COc1cc(/C=C2\C(=N)N3N=C(S(C)(=O)=O)SC3=NC2=O)ccc1OC(=O)c1ccco1`, the half-maximal inhibitory concentration (IC50) (as a rule, the concentration that gives 50% inhibition) is 21.9 µM (active). The result for `O=C(O)COc1ccccc1/C=N/NC(=O)CSc1nnc(SCc2cccc3ccccc23)s1` reads 26.6 µM (active).
